Measurements published in patent US4332803A, “Benzanilide derivative” (Mead Johnson & Company, priority 1980, dated 1982).
Read-outs that look alike come from different tables or passages of the source.

Legend:
in vivo = conditions: mouse, in vivo, po
Description: (§1) II. AlD50 /ATD50 mouse treated orally; ALD50 is the
(§2) lethal dose for half the animals; ATD50 is the approximate
(§3) lowest dose where signs of physiologic or neurologic deficit
(§4) appear in half the animals, expressed as mg/kg body weight.

mouse = experiment: Test II: approximation of the oral toxicity in mice (ALD50/ATD50); conditions: comparison among the tabulated compounds, mice
Description: as §1, §2, §3, §4

[1] = man, two or more hours following 50 mg. dose of encainide hydrochloride orally
Description: A. Extraction of Biological Fluid. To 1 ml of plasma or urine in a screw-capped tube there is added 0.2 ml of 0.5 M. Tris-HCl buffer (2-amino-2-hydroxymethyl-1,3-propanediol), pH 8.5, and 10 ml of n-butyl chloride containing 5% by volume of isopropanol. The sample is then shaken on an oscillating mixer followed by centrifugation to separate the phases. A 9 ml aliquot of the organic layer is removed and evaporated to dryness under a stream of nitrogen and the residue is redissolved in 100 mcl of ethanol. A 50 mcl aliquot of this solution is injected onto the column for high pressure liquid chromatography.
B. High Pressure Liquid Chromatography (HPLC) Conditions. A normal phase silicic acid column having dimensions 3.9 mm by 30 cm in length equipped with a variable wavelength UV detector set at 254 nm is used. The mobil phase employed consists of 500 ml of ethanol, 30 ml of water, and 0.1 ml of methanesulfonic acid at a flow rate of 1 ml per minute. A series of standards containing 0, 25, 100 and 500 ng/ml of each compound to be assayed was prepared using pooled human plasma. These standards were treated as described above. Quantification of the detector response was achieved by digital integration or measurement of peak heights. The standard curve for each component was constructed by linear regression of the detector response versus concentration from the plasma standards. […]

[2] = test system: ventricular arrhythmia in mice produced by chloroform inhalation; experiment: Test I: antiarrhythmic activity for ventricular arrhythmia in mice produced by chloroform inhalation; format: in vivo; conditions: for ED50: Mus musculus, ip, read-out: Antiarrhythmic activity, ED50
Description: I. Antiarrhythmic activity for ventricular arrhythmia in mice
produced by chloroform inhalation; ED50 expressed as mg/kg
body weight, intraperitoneal administration, J. W. Lawson, […]

clinical = conditions: for half-life: human
Description: III. Time following oral dosing of humans with 75 mg. of encainide
hydrochloride for clearance (plasma concentration <20 ng./ml.)
from blood plasma; hours.
IV. Approximate half life in human blood plasma following oral
dosing with encainide hydrochloride; hours.
A. Extraction of Biological Fluid.
B. High Pressure Liquid Chromatography (HPLC) Conditions. […] These standards were treated as described above.

[3] = following treatment with encainide; cited from earlier work
[4] = mice, chloroform inhalation, intraperitoneal administration, ranges are of various determinations

SMILES	LD50 (in vivo)	TD50 (in vivo)	Toxicity (in words) (mouse)	Concentration in blood plasma relative to Compound No. 89 [1]	ED50 [2, 4]	half-life (clinical; in vivo, po)	Presence in the blood (in words) (clinical; in vivo, po)	Time following oral dosing for clearance (plasma concentration <20 ng./ml.) from blood plasma (clinical; in vivo, po)	Amount in plasma relative to encainide [3]	ED50 [2]	Antiarrhythmic activity (in words) ([2]; comparison among the tabulated compounds, mice)	half-life (clinical; in vivo, po, 75 mg)	Time following oral dosing for clearance (plasma concentration <20 ng./ml.) from blood plasma (clinical; humans dosed orally with 75 mg. of encainide hydrochloride)
COc1cc(C(=O)Nc2ccccc2CCC2CCCCN2C)ccc1O (stereo not drawn) [Compound A, 4-Hydroxy-3-methoxy-N-[2-[2-(1-methyl-2-piperidinyl)ethyl]phenyl]benzamide]	250 mg/kg	31.3 to 62.5 mg/kg	reduced toxicity	substantially greater	9.5 mg/kg	4 to 6 h	more prolonged presence in the blood	> 16 h	–	–	–	–	–
CN1CCCCC1CCc1ccccc1NC(=O)c1ccc(O)cc1 (stereo not drawn) [Compound No. 89, O-demethylencainide]	25 to 50 mg/kg	5 to 10 mg/kg	somewhat more toxic in mice	–	–	–	–	–	several times the concentration of encainide	1.7 to 2.8 mg/kg	somewhat more potent	4 to 6 h	> 16 h
COc1ccc(C(=O)Nc2ccccc2CCC2CCCCN2C)cc1 (stereo not drawn) [Compound No. 107, encainide]	50 to 100 mg/kg	5 to 10 mg/kg	–	–	5.3 to 15 mg/kg	2.5 to 3 h	–	6 h	–	–	–	–	–
COc1cccc(C(=O)Nc2ccccc2CCC2CCCCN2C)c1 (stereo not drawn) [compound 108]	100 mg/kg	10 to 25 mg/kg	–	–	10 mg/kg	–	–	–	–	–	–	–	–
COc1ccc(C(=O)Nc2ccccc2CCC2CCCCN2C)cc1OC (stereo not drawn) [compound 109]	100 mg/kg	25 mg/kg	–	–	10 mg/kg	–	–	–	–	–	–	–	–
COc1ccc(C(=O)Nc2ccccc2CCC2CCCCN2)cc1 (stereo not drawn) [compound 139, N-demethylencainide]	147 mg/kg	15.7 mg/kg	–	–	28 mg/kg	–	–	–	–	–	–	–	–
